Here are results for 9 compounds from ChEMBL document CHEMBL1155466, “Structure-activity relationships of 6-methyl-benzo[b]thiophene-2-carboxylic acid (1-[(S)-1-benzyl-4-[4-(tetrahydropyran-4-ylmethyl)piperazin-1-yl]butylcarbamoyl]cyclopentyl)amide, potent antagonist of the neurokinin-2 receptor” (J Med Chem, 2010).

Molecules are shown by their SMILES. Activity calls are given as the source filed them. The rule behind the calls is not given here.

Series [1] addresses T1, Substance-K receptor (Homo sapiens, UniProt P21452).
T1 sequence (P21452 whole entry): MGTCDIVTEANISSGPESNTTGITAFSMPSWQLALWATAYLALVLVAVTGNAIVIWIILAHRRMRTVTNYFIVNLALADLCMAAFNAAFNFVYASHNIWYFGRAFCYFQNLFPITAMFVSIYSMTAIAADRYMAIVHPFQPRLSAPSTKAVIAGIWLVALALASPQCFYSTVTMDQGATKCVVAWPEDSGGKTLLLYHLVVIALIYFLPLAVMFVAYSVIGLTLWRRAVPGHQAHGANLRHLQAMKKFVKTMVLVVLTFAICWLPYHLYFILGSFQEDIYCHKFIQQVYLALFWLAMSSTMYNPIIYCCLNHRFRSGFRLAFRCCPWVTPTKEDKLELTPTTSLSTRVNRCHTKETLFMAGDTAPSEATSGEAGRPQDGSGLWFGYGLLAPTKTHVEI
Nature of the series: Displacement of [3H]neurokinin A from human NK2 receptor.

Series [2] concerns the target T2, Substance-K receptor (Cavia porcellus) (UniProt Q64077).
T2 sequence (whole entry): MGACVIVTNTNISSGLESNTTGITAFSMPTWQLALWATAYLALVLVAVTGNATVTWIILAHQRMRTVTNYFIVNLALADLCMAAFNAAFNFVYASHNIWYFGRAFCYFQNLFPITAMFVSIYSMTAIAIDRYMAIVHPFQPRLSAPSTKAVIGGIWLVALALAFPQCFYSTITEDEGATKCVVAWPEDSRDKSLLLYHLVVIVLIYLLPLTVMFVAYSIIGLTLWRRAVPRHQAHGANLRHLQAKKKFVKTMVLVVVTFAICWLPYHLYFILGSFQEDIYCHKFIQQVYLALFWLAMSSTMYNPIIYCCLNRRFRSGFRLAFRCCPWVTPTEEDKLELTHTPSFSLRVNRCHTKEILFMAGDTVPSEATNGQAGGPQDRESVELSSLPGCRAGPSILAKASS
Kind of series: Antagonist activity at NK2 receptor in Dunkin-Hartley guinea pig colon smooth muscle assessed as inhibition of [beta-Ala8]NKA(4-10)-induced tissue contraction in presence of NK1 receptor antagonist SR-140333. The series is classed as functional, tissue-based.

A short description of series [3]: Apparent permeability from apical to basolateral side of human Caco-2 cells at 100 uM. In general terms: Passage across Caco-2 layers is used to estimate intestinal permeability.
A further series concerns Cavia porcellus. Nature of the series: Inhibition of [beta-Ala8]NKA(4-10)-induced colonic contractions in Dunkin-Hartley guinea pig at 3 umol/kg, iv after 4 hrs relative to control. The series is classed as functional.
Series [4] concerns the target T1, Substance-K receptor. Kind of series: Antagonist activity at NK2 receptor in human urinary bladder assessed as inhibition of [beta-Ala8]NKA(4-10)-induced tissue contractions. Type of series: functional. Particulars: read-out: pA2 (converted).
A further series deals with Homo sapiens. Nature of the series: Inhibition of [beta-Ala8]NKA(4-10)-induced colonic contractions […] at 10 umol/kg, id relative to control. The series is classed as functional, organism-based.

A word on the Ki: it is the equilibrium dissociation constant of an inhibitor or competing ligand from its target. A lower Ki goes with tighter binding. The pKb is the Kb on a negative log10 scale, so that one unit is a factor of ten. The Papp A→B is how fast a substance crosses the layer from the apical side. For the compound `O=C(NC1(C(=O)N[C@@H](CCCN2CCN(CC3CCOCC3)CC2)Cc2ccccc2)CCCC1)c1cc2ccccc2o1`, the affinity at Substance-K receptor [1] corresponds to a Ki of 0.631 nM. The pKb in series [2] is 8.2. The apical-to-basolateral permeability (Papp A→B) at 100 µM in series [3] was found to be 20.2 ×10⁻⁶ cm/s. Besides, the Imax in the series with Cavia porcellus was determined as 65%.
Taken in the same sequence, the figures for `COc1ccc2oc(C(=O)NC3(C(=O)N[C@@H](CCCN4CCN(CC5CCOCC5)CC4)Cc4ccccc4)CCCC3)cc2c1` were 0.631 nM, 7.4, 8.6 ×10⁻⁶ cm/s and 98%.
For the compound `Cc1ccc2cc(C(=O)NC3(C(=O)N[C@@H](CCCN4CCN(CC5CCOCC5)CC4)Cc4ccccc4)CCCC3)sc2c1`, in series [2], the negative-log Kb (pKb) was determined as 8.6. Also, the apparent permeability from apical to basolateral (Papp A→B) at 100 µM in series [3] was 11.2 ×10⁻⁶ cm/s. Moreover, the Imax in the series on Cavia porcellus came to 100%. Besides, the Kb on Substance-K receptor [4] is 0.2 nM. Further, the result in the series with Homo sapiens was Active.
On to `O=C(NC1(C(=O)N[C@@H](CCCN2CCN(CC3CCOCC3)CC2)Cc2ccccc2)CCCC1)c1ccc2ccccc2c1`, for which, on Substance-K receptor [1], the inhibition constant (Ki) is 0.316 nM. In series [2], the negative logarithm of the Kb (pKb) turned out to be 8.2. In addition, in series [3], the Papp A→B at 100 µM was 14.6 ×10⁻⁶ cm/s.
In the case of `O=C(NC1(C(=O)N[C@@H](CCCN2CCN(CC3CCOCC3)CC2)Cc2ccccc2)CCCC1)c1cc2cc(Cl)ccc2o1`, the Ki at Substance-K receptor [1] is 0.251 nM. Besides, the negative-log Kb (pKb) in series [2] worked out at 7.6. In addition, the Papp A→B at 100 µM in series [3] is 13.7 ×10⁻⁶ cm/s. This compound also yielded an Imax in the series on Cavia porcellus of 100%.
Taken in the same sequence, the figures for `Cc1ccc(-c2ccc(C(=O)NC3(C(=O)N[C@@H](CCCN4CCN(CC5CCOCC5)CC4)Cc4ccccc4)CCCC3)cc2)cc1` were 0.631 nM, 7.8, 7.1 ×10⁻⁶ cm/s and 60%.
The compound `Cc1ccc2cc(C(=O)NC3(C(=O)N[C@@H](CCCN4CCN(S(=O)(=O)N5CCOCC5)CC4)Cc4ccccc4)CCCC3)sc2c1` showed an inhibition constant Ki at Substance-K receptor [1] of 0.501 nM. Also, in series [2], the pKb is 8.4. In the series with Cavia porcellus, this compound registered an Imax of 97%.
Take `Cc1ccc2cc(C(=O)NC3(C(=O)N[C@@H](CCCN4CCN(C5CCOCC5)CC4)Cc4ccccc4)CCCC3)sc2c1`: affinity on Substance-K receptor [1] was put at a Ki of 0.251 nM. Moreover, the negative logarithm of the Kb (pKb) in series [2] worked out at 8.1. For the same compound, the Imax in the series on Cavia porcellus is reported as 100%.
In turn, `O=C(NC1(C(=O)N[C@@H](CCCN2CCN(CC3CCOCC3)CC2)Cc2ccccc2)CCCC1)c1ccc(-c2ccccc2)cc1` had a Ki at Substance-K receptor [1] of 0.501 nM. The negative logarithm of the Kb (pKb) in series [2] was found to be 8.7. Also, the Papp A→B at 100 µM in series [3] was found to be 13.6 ×10⁻⁶ cm/s. The compound further had an Imax in the series with Cavia porcellus of 86%.
